Assay results reported in PMC7614683, “A small molecule PI3Kα activator for cardioprotection and neuroregeneration” (Nature, 2023).
Read-outs that look alike come from different tables or passages of the source.

Experiments:
[1] = biological target: T1, protein kinases of the Z-LYTE panel (Homo sapiens, UniProt P36888); assay: SelectScreen Z-LYTE kinase activity assay (SI Table 6); type: biochemical
T1 sequence (P36888 27-993): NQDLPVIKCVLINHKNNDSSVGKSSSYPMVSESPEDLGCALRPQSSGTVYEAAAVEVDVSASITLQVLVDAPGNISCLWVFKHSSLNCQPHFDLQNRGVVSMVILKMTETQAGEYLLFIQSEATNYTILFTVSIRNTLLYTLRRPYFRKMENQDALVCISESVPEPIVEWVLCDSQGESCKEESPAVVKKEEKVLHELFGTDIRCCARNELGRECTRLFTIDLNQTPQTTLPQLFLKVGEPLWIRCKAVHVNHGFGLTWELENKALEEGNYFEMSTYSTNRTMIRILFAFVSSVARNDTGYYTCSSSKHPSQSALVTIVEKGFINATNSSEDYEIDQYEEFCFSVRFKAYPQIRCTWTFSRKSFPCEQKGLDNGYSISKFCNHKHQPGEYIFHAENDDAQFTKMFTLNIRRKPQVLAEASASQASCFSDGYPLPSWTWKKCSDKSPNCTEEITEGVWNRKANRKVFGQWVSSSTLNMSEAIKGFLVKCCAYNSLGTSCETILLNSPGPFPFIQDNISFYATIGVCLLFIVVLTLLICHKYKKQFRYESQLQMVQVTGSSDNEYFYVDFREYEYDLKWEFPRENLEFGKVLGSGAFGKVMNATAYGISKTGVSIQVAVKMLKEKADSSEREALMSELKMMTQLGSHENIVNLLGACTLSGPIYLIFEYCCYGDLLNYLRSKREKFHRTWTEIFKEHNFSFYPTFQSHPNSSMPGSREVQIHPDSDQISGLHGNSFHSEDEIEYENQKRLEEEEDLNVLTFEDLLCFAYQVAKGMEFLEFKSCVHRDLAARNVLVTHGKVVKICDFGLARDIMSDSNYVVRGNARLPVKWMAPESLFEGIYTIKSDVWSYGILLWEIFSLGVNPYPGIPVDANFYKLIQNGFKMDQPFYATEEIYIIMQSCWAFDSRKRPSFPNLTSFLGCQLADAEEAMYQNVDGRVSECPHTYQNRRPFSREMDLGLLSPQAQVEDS
In short: (§1)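 A single compound concentration of 1 μM was profiled in the vendor's Adapta, Lantha and Z-LYTE kinase assays. In gel-based follow-ups with 200 μM compound, phosphorylation was resolved on Phos-tag SDS-PAGE and quantified by Coomassie. The ATM run used 1 mM ATP with GST-p53 for 30 min, and the mTORC1 run used 250 μM ATP with 4E-BP1 for 3 h.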

[2] = biological target: T2, protein kinases of the Z-LYTE panel (Homo sapiens, UniProt Q06418); assay: as above; type: biochemical
T2 sequence (Q06418 41-890): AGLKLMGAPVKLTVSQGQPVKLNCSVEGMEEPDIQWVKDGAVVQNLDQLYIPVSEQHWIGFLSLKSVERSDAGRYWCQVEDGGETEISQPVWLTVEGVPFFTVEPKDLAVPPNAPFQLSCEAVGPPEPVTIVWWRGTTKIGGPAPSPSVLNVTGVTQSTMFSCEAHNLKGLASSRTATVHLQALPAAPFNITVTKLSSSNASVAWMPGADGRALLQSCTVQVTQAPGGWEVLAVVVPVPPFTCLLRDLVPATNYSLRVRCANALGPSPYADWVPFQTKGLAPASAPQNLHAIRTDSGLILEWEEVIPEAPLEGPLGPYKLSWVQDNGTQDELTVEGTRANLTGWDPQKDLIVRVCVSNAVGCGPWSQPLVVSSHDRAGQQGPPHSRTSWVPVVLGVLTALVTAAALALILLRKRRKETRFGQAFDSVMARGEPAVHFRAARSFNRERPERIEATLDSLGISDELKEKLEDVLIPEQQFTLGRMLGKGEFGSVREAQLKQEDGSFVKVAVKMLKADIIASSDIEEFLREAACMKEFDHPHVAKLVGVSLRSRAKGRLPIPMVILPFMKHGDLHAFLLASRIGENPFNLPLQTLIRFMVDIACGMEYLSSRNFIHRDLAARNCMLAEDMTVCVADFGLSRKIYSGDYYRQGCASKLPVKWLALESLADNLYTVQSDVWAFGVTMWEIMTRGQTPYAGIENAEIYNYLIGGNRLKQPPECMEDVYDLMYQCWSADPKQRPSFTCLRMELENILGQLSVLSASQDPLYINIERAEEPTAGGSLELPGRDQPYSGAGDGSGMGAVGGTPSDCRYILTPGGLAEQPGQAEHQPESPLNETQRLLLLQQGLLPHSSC
In short: as §1

With `CCN1CCN(c2ccc(Nc3cc(Nc4cccc5c4N(C(C)=O)CC5)ccn3)cc2)CC1` [Compound 1938] the inhibition at 1 µM ([1]; read-out: % Inhibition Point 1) was 19%, the inhibition at 1 µM ([1]; read-out: % Inhibition Point 2) was 20% and the inhibition at 1 µM ([1]; read-out: % Inhibition mean) was 19%. For the same compound, the inhibition at 1 µM ([2]; read-out: % Inhibition Point 1) was 8%, the inhibition at 1 µM ([2]; read-out: % Inhibition Point 2) was 7.56% and the inhibition at 1 µM ([2]; read-out: % Inhibition mean) was 7.59%.
